Values quoted from earlier work in patent US10881615B2, “Pharmaceutical composition comprising dabigatran etexilate, and preparation method, solid preparation and use thereof” (Chia Tai Tianqing Pharmaceutical Group Co., Ltd., priority 2014, dated 2021).

Conditions: medium at pH of >4.0

- Solubility: almost insoluble
Structure (SMILES): CCCCCCOC(=O)NC(=N)c1ccc(NCc2nc3cc(C(=O)N(CCC(=O)OCC)c4ccccn4)ccc3n2C)cc1 [dabigatran etexilate, 3-[(2-{[4-(hexyloxycarbonylamino-imino-methyl)-phenylamino]-methyl}-1-methyl-1H-benzimidazol-5-yl-carbonyl)-pyridin-2-yl-amino]-ethyl propionate]
